Reference: patent US20110171675A1, “FRET-BASED MEMBRANE-TYPE 1 MATRIX METALLOPROTEINASE BIOSENSOR AND METHODS FOR USING THE SAME” (priority 2008, published 2011)

Assays:
[1] = tested on: Src; assay: PDGF-induced Src activation in MEFs (Src FRET biosensor); type: cell-based, mouse
Excerpt: Unexpectedly, PDGF-induced Src activation was global without a clear spatial pattern at subcellular levels, even when MEFs were constrained on fibronectin stripes to have directional migration.

[2] = tested on: Rac; assay: PDGF-induced Rac activity in MEFs (Rac FRET biosensor); type: cell-based, mouse
Excerpt: The improved ECFP/YPet biosensor was further used in the analysis of molecular hierarchy in cell migration. […] However, the spatiotemporal interrelationship between Src and Rac activation has not been shown. Thus, the improved Rac biosensor was employed to visualize the spatiotemporal Rac activity during cell migration in response to platelet-derived growth factor (PDGF). The role of Src in regulating this Rac activation was also investigated. […] PDGF induced a strong Rac activation at membrane ruffles and a moderate overall activation of Rac in the whole cell. […] To further characterize the spatiotemporal Rac activity, MEF cells transfected with the Rac biosensor were seeded atop fibronectin-coated stripes (10 μm width) to constrain the cell adhesion and control the direction of cell migration. […] Again, the inhibition of Src by PP1 or Src/Yes/Fyn triple-knockout blocked the polarized Rac activity before and after PDGF stimulation.

[3] = tested on: Src; assay: VEGF-induced membrane Src activation in live endothelial cells (FRET); type: cell-based; details: YPet-based membrane-targeted Src biosensor
Excerpt: Both VEGF and Src are critical for angiogenesis. […] However, VEGF-induced Src activation was difficult to detect using an ECFP/Citrine-based biosensor. […] Thus, the YPet-based Src biosensor was targeted to the plasma membrane by fusing a prenylation substrate sequence (Lys-Lys-Lys-Lys-Lys-Lys-Ser-Lys-Thr-Lys-Cys-Val-Ile-Met; SEQ ID NO:9) from KRas to visualize the VEGF-induced membrane Src activation in live endothelial cells.

SMILES	PDGF-induced Src activation ([1]; MEF cells transfected with RacV12)	PDGF-induced Src activation ([1]; MEFs, disruption of actin filaments)	Polarized Rac activity before and after PDGF stimulation ([2]; MEFs on fibronectin-coated stripes (10 μm width))	Basal and PDGF-induced Rac activity ([2]; MEFs pretreated with inhibitor, cultured on fibronectin)	Effect of inhibitor on VEGF-induced FRET response [3]
C=C1[C@@H](C)[C@H]2[C@H](Cc3ccccc3)NC(=O)[C@]23[C@H](OC(C)=O)/C=C/[C@@](C)(O)C(=O)[C@@H](C)C/C=C/[C@H]3[C@@H]1O [CytoD]	inhibited	blocked	–	–	–
Cc1ccc(-c2nn(C(C)(C)C)c3ncnc(N)c23)cc1 [PP1]	–	–	blocked	significantly inhibited	abolished
CC(C)c1cc(/C=C(\C#N)C(=O)NCCCc2ccccc2)cc(C(C)C)c1O [SU1498]	–	–	–	–	abolished
